Consider 27 molecules from US10934298B2, “Substituted pyrazolo[1,5-a]pyrimidines for the treatment of medical disorders” (BIAL—BioTech Investments, Inc., priority 2016, dated 2021).

The target in this assay is T1, glucocerebrosidase (Gcase) (Homo sapiens, UniProt P04062).
T1 construct: micellar solution containing 10 nM GCase and 100 nM saposin C
T1 sequence (P04062 40-536): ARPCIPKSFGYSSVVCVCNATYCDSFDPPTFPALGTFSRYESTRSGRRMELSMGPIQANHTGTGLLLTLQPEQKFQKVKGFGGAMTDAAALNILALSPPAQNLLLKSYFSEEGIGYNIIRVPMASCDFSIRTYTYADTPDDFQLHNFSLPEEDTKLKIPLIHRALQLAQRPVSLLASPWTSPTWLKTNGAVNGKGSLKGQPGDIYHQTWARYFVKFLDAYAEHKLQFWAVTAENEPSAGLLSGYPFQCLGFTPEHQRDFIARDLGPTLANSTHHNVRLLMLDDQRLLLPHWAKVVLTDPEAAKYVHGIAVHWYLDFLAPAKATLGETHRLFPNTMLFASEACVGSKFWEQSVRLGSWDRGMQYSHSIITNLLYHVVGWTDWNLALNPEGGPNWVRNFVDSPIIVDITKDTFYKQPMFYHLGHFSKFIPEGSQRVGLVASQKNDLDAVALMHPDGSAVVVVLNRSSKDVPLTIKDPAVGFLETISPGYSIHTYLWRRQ
As to the kind of experiment: Glucocerebrosidase (Gcase) activation assay with 4-methylumbelliferyl-beta-D-glucopyranoside substrate, saposin C and phosphatidylserine/triton micelles, fluorescence readout. It counts as biochemical. Conditions: for Percent Gcase Activation, 0.1 μM Test Compound: test compound at 0.1 μM; for Percent Gcase Activation, 1 μM Test Compound: test compound at 1.0 μM. The gist of the method: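 Readout is endpoint fluorescence (ex 365, em 440 nm) after glycine pH 12.5 stop of a 15-min room-temperature reaction. Enzyme mix: GCase 10 nM plus saposin C 100 nM in 0.37 mol % PS/0.32 mM triton micelles, pH 4.7, compound pre-incubated 30 min; substrate solution 2 mM before 1:1 mixing. Tested at 1.0/0.1 μM, then 3-fold, 8-point series up to 5 μM.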

On to `Cc1cc(-c2cccc(-c3ncon3)c2)nc2c(C(=O)NC(C3CC3)C(F)(F)F)cnn12` (stereo not drawn) [III-176], for which the “Percent Gcase Activation, 0.1 μM Test Compound” value is on record as “*** (greater than 20% Gcase activation)” and the “Percent Gcase Activation, 1 μM Test Compound” value is recorded as “+++ (Gcase activation greater than 60%)”.
For `Cc1cc(-c2cccc(-c3ncncn3)c2)nc2c(C(=O)NC(C3CC3)C(F)(F)F)cnn12` (stereo not drawn) [III-177], the “Percent Gcase Activation, 0.1 μM Test Compound” value was “*** (greater than 20% Gcase activation)” and the “Percent Gcase Activation, 1 μM Test Compound” value is given as “+++ (Gcase activation greater than 60%)”.
Regarding `Cc1cc(-c2ccns2)nc2c(C(=O)NC(C)C(F)(F)F)cnn12` (stereo not drawn) [III-178], the “Percent Gcase Activation, 0.1 μM Test Compound” value is “** (Gcase activation in the range of 10% up to 20%)” and the “Percent Gcase Activation, 1 μM Test Compound” value is recorded as “+++ (Gcase activation greater than 60%)”.
On to `Cc1cc(N2CCCC(F)(F)C2)nc2c(C(=O)NC(C)C(F)(F)F)cnn12` (stereo not drawn) [III-179], for which the “Percent Gcase Activation, 0.1 μM Test Compound” value was “*** (greater than 20% Gcase activation)” and the “Percent Gcase Activation, 1 μM Test Compound” value is on record as “+++ (Gcase activation greater than 60%)”.
On to `Cc1cc(N2CCC(F)(F)C2)nc2c(C(=O)NC(C)C(F)(F)F)cnn12` (stereo not drawn) [III-180], for which the “Percent Gcase Activation, 0.1 μM Test Compound” value is “** (Gcase activation in the range of 10% up to 20%)” and the “Percent Gcase Activation, 1 μM Test Compound” value is given as “+++ (Gcase activation greater than 60%)”.
As for `Cc1cc(N2CCC(F)(F)CC2)nc2c(C(=O)NC(C)C(F)(F)F)cnn12` (stereo not drawn) [III-181], the “Percent Gcase Activation, 0.1 μM Test Compound” value is “* (less than 10% Gcase activation)” and the “Percent Gcase Activation, 1 μM Test Compound” value is recorded as “+++ (Gcase activation greater than 60%)”.
In the case of `Cc1cc(-c2cccc3c2OCO3)nc2c(C(=O)N[C@@H](C)C3CC3)cnn12` [III-182], the “Percent Gcase Activation, 0.1 μM Test Compound” value was “*** (greater than 20% Gcase activation)” and the “Percent Gcase Activation, 1 μM Test Compound” value was “++ (Gcase activation in the range of 30% up to 60%)”.
As for `Cc1cc(-c2cccc3c2OCO3)nc2c(C(=O)NC(C3CC3)C(F)(F)F)cnn12` (stereo not drawn) [III-183], the “Percent Gcase Activation, 0.1 μM Test Compound” value was “*** (greater than 20% Gcase activation)” and the “Percent Gcase Activation, 1 μM Test Compound” value was “+++ (Gcase activation greater than 60%)”.
For the molecule `Cc1cc(C)n2ncc(C(=O)NC(c3ccc(F)cc3)C(F)(F)F)c2n1` (stereo not drawn) [III-184], the “Percent Gcase Activation, 0.1 μM Test Compound” value is “*** (greater than 20% Gcase activation)” and the “Percent Gcase Activation, 1 μM Test Compound” value is “+++ (Gcase activation greater than 60%)”.
`Cc1cc(-c2ccc(C#N)o2)nc2c(C(=O)NC(C3CC3)C(F)(F)F)cnn12` (stereo not drawn) [III-185]: the “Percent Gcase Activation, 0.1 μM Test Compound” value is reported as “*** (greater than 20% Gcase activation)” and the “Percent Gcase Activation, 1 μM Test Compound” value is “+++ (Gcase activation greater than 60%)”.
For the molecule `Cc1cc(-c2ccco2)nc2c(C(=O)NC(C3CC3)C(F)(F)F)cnn12` (stereo not drawn) [III-186], the “Percent Gcase Activation, 0.1 μM Test Compound” value is on record as “*** (greater than 20% Gcase activation)” and the “Percent Gcase Activation, 1 μM Test Compound” value is “+++ (Gcase activation greater than 60%)”.
The like results for `Cc1cc(-c2ccoc2)nc2c(C(=O)NC(C3CC3)C(F)(F)F)cnn12` (stereo not drawn) [III-187] were, in that order, “*** (greater than 20% Gcase activation)” and “+++ (Gcase activation greater than 60%)”.
For `Cc1cc(-c2cscc2C#N)nc2c(C(=O)NC(C3CC3)C(F)(F)F)cnn12` (stereo not drawn) [III-188], the “Percent Gcase Activation, 0.1 μM Test Compound” value is given as “*** (greater than 20% Gcase activation)” and the “Percent Gcase Activation, 1 μM Test Compound” value was “+++ (Gcase activation greater than 60%)”.
On to `Cc1cc(-c2sccc2C#N)nc2c(C(=O)NC(C3CC3)C(F)(F)F)cnn12` (stereo not drawn) [III-189], for which the “Percent Gcase Activation, 0.1 μM Test Compound” value is on record as “*** (greater than 20% Gcase activation)” and the “Percent Gcase Activation, 1 μM Test Compound” value was “+++ (Gcase activation greater than 60%)”.
For `Cc1cc(C)n2ncc(C(=O)N[C@H]3CC[C@H](OC(C)(C)C)CC3)c2n1` [III-190], the “Percent Gcase Activation, 0.1 μM Test Compound” value is listed as “* (less than 10% Gcase activation)” and the “Percent Gcase Activation, 1 μM Test Compound” value was “+ (less than 30% Gcase activation)”.
In the case of `Cc1cc(C)n2ncc(C(=O)N[C@H]3CC[C@H](OCC(C)C)CC3)c2n1` [III-191], the “Percent Gcase Activation, 0.1 μM Test Compound” value was “* (less than 10% Gcase activation)” and the “Percent Gcase Activation, 1 μM Test Compound” value is recorded as “+++ (Gcase activation greater than 60%)”.
Turning to `Cc1cc(-c2ccc3scnc3c2)nc2c(C(=O)N[C@@H](C)C3CC3)cnn12` [III-192], the “Percent Gcase Activation, 0.1 μM Test Compound” value is “*** (greater than 20% Gcase activation)” and the “Percent Gcase Activation, 1 μM Test Compound” value is “+++ (Gcase activation greater than 60%)”.
As for `Cc1cc(-c2ccc3scnc3c2)nc2c(C(=O)N[C@H](C)C3CC3)cnn12` [III-193], the “Percent Gcase Activation, 0.1 μM Test Compound” value was “*** (greater than 20% Gcase activation)” and the “Percent Gcase Activation, 1 μM Test Compound” value is on record as “+++ (Gcase activation greater than 60%)”.
For `COc1ccc(F)cc1-c1cc(C)n2ncc(C(=O)NC(C)C(F)(F)F)c2n1` (stereo not drawn) [III-194], the “Percent Gcase Activation, 0.1 μM Test Compound” value is “*** (greater than 20% Gcase activation)” and the “Percent Gcase Activation, 1 μM Test Compound” value is “+++ (Gcase activation greater than 60%)”.
As to `COc1ccc(F)cc1-c1cc(C)n2ncc(C(=O)N[C@H](C)C(F)(F)F)c2n1` [III-195], the “Percent Gcase Activation, 0.1 μM Test Compound” value was “*** (greater than 20% Gcase activation)” and the “Percent Gcase Activation, 1 μM Test Compound” value was “+++ (Gcase activation greater than 60%)”.
Regarding `COc1ccc(F)cc1-c1cc(C)n2ncc(C(=O)N[C@@H](C)C(F)(F)F)c2n1` [III-196], the “Percent Gcase Activation, 0.1 μM Test Compound” value is recorded as “*** (greater than 20% Gcase activation)” and the “Percent Gcase Activation, 1 μM Test Compound” value was “+++ (Gcase activation greater than 60%)”.
Take `Cc1cc(-c2ccns2)nc2c(C(=O)N[C@@H](C)C3CC3)cnn12` [III-197]: the “Percent Gcase Activation, 0.1 μM Test Compound” value is on record as “*** (greater than 20% Gcase activation)” and the “Percent Gcase Activation, 1 μM Test Compound” value is on record as “+++ (Gcase activation greater than 60%)”.
With `Cc1cc(-c2ccns2)nc2c(C(=O)N[C@H](C)C3CC3)cnn12` [III-198], the “Percent Gcase Activation, 0.1 μM Test Compound” value is “* (less than 10% Gcase activation)” and the “Percent Gcase Activation, 1 μM Test Compound” value is “+++ (Gcase activation greater than 60%)”.
Take `Cc1cc(-c2cnccc2F)nc2c(C(=O)NC(C)C(F)(F)F)cnn12` (stereo not drawn) [III-199]: the “Percent Gcase Activation, 0.1 μM Test Compound” value was “* (less than 10% Gcase activation)” and the “Percent Gcase Activation, 1 μM Test Compound” value is “++ (Gcase activation in the range of 30% up to 60%)”.
The like results for `Cc1cc(-c2cncc(Cl)c2)nc2c(C(=O)NC(C)C(F)(F)F)cnn12` (stereo not drawn) [III-200] were, in that order, “*** (greater than 20% Gcase activation)” and “+++ (Gcase activation greater than 60%)”.
On to `Cc1cc(-c2cncc(Cl)c2)nc2c(C(=O)N[C@H](C)C(F)(F)F)cnn12` [III-201], for which the “Percent Gcase Activation, 0.1 μM Test Compound” value was “*** (greater than 20% Gcase activation)” and the “Percent Gcase Activation, 1 μM Test Compound” value is on record as “+++ (Gcase activation greater than 60%)”.
For `Cc1cc(-c2cncc(Cl)c2)nc2c(C(=O)N[C@@H](C)C(F)(F)F)cnn12` [III-202], the “Percent Gcase Activation, 0.1 μM Test Compound” value is “*** (greater than 20% Gcase activation)” and the “Percent Gcase Activation, 1 μM Test Compound” value is given as “+++ (Gcase activation greater than 60%)”.
